The results in this text go back to patent US7273856B2, “Linear basic compounds having NK-2 antagonist activity and formulations thereof” (Menarini Ricerche S.P.A., priority 2001, dated 2007).

The target of the assay is T1, human NK-2 receptor (Homo sapiens, UniProt P21452).
T1 construct: expressed in transfected cells; host or cells: CHO (Chinese hamster ovary) cells, membranes
T1 sequence (P21452 1-398): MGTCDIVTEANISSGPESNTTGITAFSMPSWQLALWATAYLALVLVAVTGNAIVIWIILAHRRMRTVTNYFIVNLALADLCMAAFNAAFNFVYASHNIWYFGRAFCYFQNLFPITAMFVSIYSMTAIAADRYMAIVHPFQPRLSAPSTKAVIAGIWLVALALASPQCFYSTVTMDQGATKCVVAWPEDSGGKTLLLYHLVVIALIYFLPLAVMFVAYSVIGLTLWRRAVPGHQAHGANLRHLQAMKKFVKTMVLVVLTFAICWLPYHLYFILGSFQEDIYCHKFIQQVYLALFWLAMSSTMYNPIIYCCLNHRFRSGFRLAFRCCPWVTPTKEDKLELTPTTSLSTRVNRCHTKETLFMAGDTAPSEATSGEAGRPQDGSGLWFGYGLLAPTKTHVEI
The assay is described as follows: binding test, affinity for the human NK-2 receptor, competition with [125I]NKA on transfected CHO cell membranes. Conditions: CHO cell membranes transfected with NK-2 receptor of human ileum; [125I]NKA 100 pM; 30 min, 20° C. How it is done: The evaluation of the antagonist activity on NK-2 receptors has been assessed by binding and functional tests according to that already described in literature in relation to NK-2 antagonists.
The test substances have been tested within a concentration range from 0.01 nM to 10 nM. At the end of the incubation time (30 min, 20° C.) the samples have been filtered and radioactivity has been determined using a gamma-counter.

Where a name gives a salt, the structure may show the parent alone.

Broadly, the Ki is the dissociation constant of the complex between target and ligand, obtained from inhibition or displacement. As usually defined, the pKi is the negative decadic logarithm of the Ki, by convention in mol/L. High values mean a small Ki, low ones a large Ki.

`Cc1ccc(C=CC(=O)NC2(C(=O)NC(Cc3ccccc3)C(=O)NC3CCC(CN4CCOCC4)C3)CCc3ccccc32)cc1` (mixture of isomers) [Example 7, N^α[N^α(4(methyl)cinnamoyl)-(R,S)1-aminoindane-1-carboxy]-D-phenylalanine amide-N-[(1S,3R)-3-(morpholin-4-ylmethyl)cyclopentyl]] gave an inhibitory constant (Ki) of 0.126 nM.
In turn, `O=C(NC1(C(=O)N[C@H](Cc2ccccc2)C(=O)NCC2CCN(CCC3CCOCC3)CC2)CCCC1)c1cc2ccccc2s1` [Example 78, Benzo[b]thiophene-2-carboxylic acid {1-[2-phenyl-1(R)-({1-[2-(tetrahydro-pyran-4-yl)-ethyl]-piperidin-4-ylmethyl}-carbamoyl)-ethylcarbamoyl]-cyclopentyl}-amide] had an inhibitory constant (Ki) of 1 nM.
Consider `O=C(NC1(C(=O)N[C@H](Cc2ccccc2)C(=O)NCCCN2CCOCC2)CCCC1)c1cc2ccc(Br)cc2s1` [Example 108, 6-Bromo-benzo[b]thiophene-2-carboxylic acid {1-[1R-(3-morpholin-4-yl-propylcarbamoyl)-2-phenyl-ethylcarbamoyl]-cyclopentyl}-amide], for which the affinity, expressed as Ki, was 0.0794 nM.
The molecule `O=C(NC1(C(=O)N[C@H](Cc2ccccc2)C(=O)NCC2CN(CC3CCOCC3)C2)CCCC1)c1cc2ccccc2s1` [Example 152, Benzo[b]thiophene-2-carboxylic acid [1-(2-phenyl-1(R)-{[1-(tetrahydro-pyran-4-ylmethyl)-azetidin-3-ylmethyl]-carbamoyl}-ethylcarbamoyl)-cyclopentyl]-amide] showed a Ki of 0.126 nM.
The same measure, in the same setting: in the case of `NC1CCCCC1NC(=O)C1CCC(NC(=O)C(Cc2ccccc2)NC(=O)C2(NC(=O)c3cc4ccccc4s3)CCCC2)C1` (single isomer, unassigned) [Example 2] it was 0.158 nM; in that of `NC1CCCCC1NC(=O)C1CCC(NC(=O)C(Cc2ccccc2)NC(=O)C2(NC(=O)c3cc4ccccc4s3)CCCCC2)C1` (single isomer, unassigned) [Example 40], 1.26 nM; in that of `O=C(NC1(C(=O)N[C@H](Cc2ccccc2)C(=O)NCCCN2CCC3(CC2)OCCO3)CCCC1)c1cc2ccccc2s1` [Example 55, Benzo[b]thiophene-2-carboxylic acid (1-{1(R)-[3-(1,4-dioxa-8-aza-spiro[4.5]dec-8-yl)-propylcarbamoyl]-2-phenyl-ethylcarbamoyl}-cyclopentyl)-amide TFA salt], 1 nM.
On to `O=C(NC1(C(=O)NC(Cc2ccccc2)C(=O)NCC2CCN(CC3CCOCC3)CC2)CCCC1)c1ccc2ccccc2c1` (stereo not drawn) [Example 149, Naphthalene-2-carboxylic acid [1-(2-phenyl-1-{[1R-(tetrahydro-pyran-4-ylmethyl)-piperidin-4ylmethyl]-carbamoyl}-ethylcarbamoyl)-cyclopentyl]-amide], for which the negative-log Ki (pKi) is 9.9.
Regarding `Cc1cccc2cc(C(=O)NC3(C(=O)N[C@H](Cc4ccccc4)C(=O)NCC4CCN(CC5CCOCC5)CC4)CCCC3)sc12` [Example 134, 7-Methyl-benzo[b]thiophene-2-carboxylic acid [1-(2-phenyl-1R-{[1-(tetrahydro-pyran-4-ylmethyl)-piperidin-4-ylmethyl]-carbamoyl}-ethylcarbamoyl)-cyclopentyl]-amide], the inhibition constant Ki was 0.0631 nM.
The molecule `Cc1ccc2sc(C(=O)NC3(C(=O)N[C@H](Cc4ccccc4)C(=O)NCC4CCN(CC5CCOCC5)CC4)CCCC3)cc2c1` [Example 138, 5-Methyl-benzo[b]thiophene-2-carboxylic acid [1-(2-phenyl-1R-{[1-(tetrahydro-pyran-4-ylmethyl)piperidin-ylmethyl]-carbamoyl}-ethylcarbamoyl)-cyclopentyl]-amide] came in with a negative logarithm of the Ki (pKi) of 9.8.
As for `CN(C)[C@H]1CCCC[C@@H]1NC(=O)[C@@H]1CC[C@H](NC(=O)[C@@H](Cc2ccccc2)NC(=O)C2(NC(=O)c3cc4ccccc4n3C)CCCC2)C1` [Example 13, N^γ{N^α[N^α((methyl)indol-2-ylcarboxy)-1-aminocyclopentan-1-carboxy]-D-phenylalanyl}-(1R,3S)-3-aminocyclopentane-1-carboxylic-acid-N-((1S,2S)-2-dimethylaminocyclohexyl)amide hydrochloride salt], the inhibition constant (Ki) is 1 nM.
`CCN(CC)c1ccc2oc(C(=O)NC3(C(=O)N[C@H](Cc4ccccc4)C(=O)NCC4CCN(CC5CCOCC5)CC4)CCCC3)cc2c1` [Example 147] showed an inhibition constant (Ki) of 0.631 nM.
In the case of `Cc1ccc(C[C@@H](NC(=O)C2(NC(=O)c3ccc(-c4ccccc4)cc3)CCCC2)C(=O)N[C@H]2CC[C@@H](C(=O)N[C@H]3CCCC[C@@H]3N)C2)cc1` [Example 16, N^γ{N^α[N^α(biphenyl-4-carboxy)-1-aminocyclopentan-1-carboxy]-R-3(4(methyl)phenyl)alanyl}-(1R,3S)-3-aminocyclopentane-1-carboxylic-acid-N-((1S,2S)-2-aminocyclohexyl) amide hydrochloride salt], the Ki is 0.501 nM.
Turning to `N[C@H]1CCCC[C@@H]1NC(=O)C1CCCC(NC(=O)[C@@H](Cc2ccccc2)NC(=O)C2(NC(=O)c3cc4ccccc4s3)CCCC2)C1` (stereo partly drawn) [Example 31, acid-3-cis-N^γ{N^α[N^α(benzo[b]thiophen-2-ylcarbonyl)-1-aminocyclopentan-1-carboxy]-D-phenylalanil}aminocyclohexan-1-carboxylic-N-[(1S,2S)-aminocyclohexyl]amide], the inhibition constant Ki was 0.0794 nM.
For the molecule `CN(C)[C@H]1CCCC[C@@H]1NC(=O)[C@@H]1CC[C@H](NC(=O)[C@@H](Cc2ccccc2)NC(=O)C2(NC(=O)c3ccc(-c4ccccc4)cc3)CCCC2)C1` [Example 12, N^γ{N^α[N^α(biphen-4-ylcarbonyl)-1-aminocyclopentan-1-carboxy]-D-phenylalanyl}-(1R,3S)-3-aminocyclopentane-1-carboxylic-acid-N-((1S,2S)-2-dimethylaminocyclohexyl)amide hydrochloride salt], the Ki is 0.316 nM.
In the case of `Cc1ccc2c(c1)cc(C(=O)NC1(C(=O)N[C@H](Cc3ccccc3)C(=O)NCCCN3CCOCC3)CCCC1)n2C` [Example 114, 1,5-Dimethyl-1H-indole-2-carboxylic acid {1-[1R-(3-morpholinyl-propylcarbamoyl)-2-phenyl-ethylcarbamoyl]-cyclopentyl}-amide], the inhibition constant (Ki) was 1.58 nM.
Turning to `O=C(C=Cc1ccc(Cl)c(Cl)c1)NC1(C(=O)N[C@H](Cc2ccccc2)C(=O)NCCCN2CCOCC2)CCCC1` [Example 44, 1-[3-(3,4-dichlorophenyl)-acryloylamino]-cyclopentanecarboxylic acid, [1-(3-morpholin-4-yl-propylcarbamoyl)-2-(R)-phenyl-ethyl]-amide], the Ki is 0.794 nM.
`Cc1ccc(C=CC(=O)NC2(C(=O)NC(Cc3ccccc3)C(=O)NC3CCC(C(=O)NC4CCCCC4N(C)C)C3)CCCC2)cc1` [Example 10, N^γ{N^α[N^α(4-methyl-cinnamoyl)-1-aminocyclopentan-1-carboxy]-D-phenylalanyl}-(1R,3S)-3-aminocyclopentane-1-carboxylic-acid-N-((1S,2S)-2-dimethylaminocyclohexyl)amide hydrochloride salt] gave a Ki of 0.501 nM.
Take `CC1CN(CCCNC(=O)[C@@H](Cc2ccccc2)NC(=O)C2(NC(=O)c3cc4ccccc4s3)CCCCC2)CC(C)O1` (stereo partly drawn) [Example 48, Benzo[b]thiophene-2-carboxylic acid (1-{1-[3-(2,6-dimethyl-morpholin-4-yl)-propylcarbamoyl]-2-(R)-phenyl-ethylcarbamoyl}-cyclohexyl)-amide]: affinity was put at a Ki of 0.398 nM.
